One block for each compound: values may come before it.
What was measured:
[1] = tested on: human antigen presenting cells; assay: Stimulation of human antigen presenting cells with free adjuvants, flow cytometry; format: cell-based; conditions: peripheral blood APCs, 10-fold serial dilutions, 18 hours, 37° C.
Protocol: Peripheral blood antigen presenting cells (APCs) were stimulated with 10-fold serial dilutions of R848, Compound 2 or a control TLR agonist at 37° C. After 18 hours, cells were analyzed via flow cytometry. Data are presented as median fluorescence intensity of each indicated marker; n=3.
To determine if adjuvant functionalization impacted the capacity of Compound 2 or Compound 1 to elicit immune activation, human antigen presenting cells were stimulated with 10-fold serial dilutions of R848, Compound 2, Compound 1 or a control TLR agonist, CL307, for 18 hours prior to analysis via flow cytometry.

human TLR7 = target: T1, human TLR7 (Homo sapiens, UniProt Q9NYK1); assay: HEK293 TLR reporter (secreted embryonic alkaline phosphatase) assay; format: cell-based; conditions: 2-fold serial dilutions, 12 hours at 37° C.
T1 construct: expressed in transfected cells; host or cells: HEK293
T1 sequence (Q9NYK1 27-1049): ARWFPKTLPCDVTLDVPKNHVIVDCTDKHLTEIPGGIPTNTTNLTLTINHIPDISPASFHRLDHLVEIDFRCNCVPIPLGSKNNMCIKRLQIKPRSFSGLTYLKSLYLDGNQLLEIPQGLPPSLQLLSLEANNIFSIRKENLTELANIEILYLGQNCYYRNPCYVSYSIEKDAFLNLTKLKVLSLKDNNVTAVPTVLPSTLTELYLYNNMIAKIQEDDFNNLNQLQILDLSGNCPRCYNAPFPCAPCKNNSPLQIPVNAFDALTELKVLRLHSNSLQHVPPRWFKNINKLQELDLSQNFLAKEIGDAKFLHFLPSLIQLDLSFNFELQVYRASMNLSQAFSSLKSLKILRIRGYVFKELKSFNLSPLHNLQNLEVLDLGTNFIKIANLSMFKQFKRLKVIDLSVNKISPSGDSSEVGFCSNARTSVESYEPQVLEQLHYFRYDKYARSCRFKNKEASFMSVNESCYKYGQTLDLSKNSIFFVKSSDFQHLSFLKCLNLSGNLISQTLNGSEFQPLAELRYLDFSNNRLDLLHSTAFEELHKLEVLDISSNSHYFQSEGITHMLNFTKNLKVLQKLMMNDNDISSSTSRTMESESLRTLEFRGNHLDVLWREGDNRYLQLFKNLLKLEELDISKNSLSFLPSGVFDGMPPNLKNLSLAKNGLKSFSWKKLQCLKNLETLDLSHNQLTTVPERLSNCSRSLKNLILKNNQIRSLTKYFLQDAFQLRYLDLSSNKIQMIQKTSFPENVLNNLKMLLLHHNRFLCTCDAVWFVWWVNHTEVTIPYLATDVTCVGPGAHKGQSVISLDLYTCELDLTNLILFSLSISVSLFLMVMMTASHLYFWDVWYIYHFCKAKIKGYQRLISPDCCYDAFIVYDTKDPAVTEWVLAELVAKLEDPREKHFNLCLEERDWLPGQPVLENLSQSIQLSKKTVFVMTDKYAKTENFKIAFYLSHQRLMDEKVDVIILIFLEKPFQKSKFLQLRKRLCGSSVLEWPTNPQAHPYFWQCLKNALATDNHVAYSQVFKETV
Protocol: (§1) HEK293 cells were co-transfected with human TLR7 or TLR8 (top two panels) or murine TLR7 (bottom panel) and an inducible secreted embryonic alkaline phosphatase reporter gene under the control of the IFN-β minimal promoter fused to NF-κB and AP-1 binding sites. Cells were subsequently incubated with 2-fold serial dilutions of the indicated adjuvant for 12 hours at 37° C. Activity was measured by spectrophotometry (OD 650 nm) following addition of alkaline phosphatase substrate.
(§2) Next, the capacity of each functionalized TLR agonist to activate human TLR7 or TLR8 was directly assayed. HEK293 cells were co-transfected with human TLR7 or TLR8 or murine TLR7 and an inducible secreted embryonic alkaline phosphatase reporter gene under the control of the IFN-β minimal promoter fused to NF-κB and AP-1 binding sites. Cells were subsequently incubated with 2-fold serial dilutions of each the indicated adjuvants for 12 hours at 37 C in the presence of an alkaline phosphatase substrate. Activity was measured by spectrophotometry (OD 650 nm).

human TLR8 = target: T2, human TLR8 (Homo sapiens, UniProt Q9NR97); assay: as above; format: cell-based; conditions: 2-fold serial dilutions, 12 hours at 37° C.
T2 construct: expressed in transfected cells; host or cells: HEK293
T2 sequence (Q9NR97 27-1041): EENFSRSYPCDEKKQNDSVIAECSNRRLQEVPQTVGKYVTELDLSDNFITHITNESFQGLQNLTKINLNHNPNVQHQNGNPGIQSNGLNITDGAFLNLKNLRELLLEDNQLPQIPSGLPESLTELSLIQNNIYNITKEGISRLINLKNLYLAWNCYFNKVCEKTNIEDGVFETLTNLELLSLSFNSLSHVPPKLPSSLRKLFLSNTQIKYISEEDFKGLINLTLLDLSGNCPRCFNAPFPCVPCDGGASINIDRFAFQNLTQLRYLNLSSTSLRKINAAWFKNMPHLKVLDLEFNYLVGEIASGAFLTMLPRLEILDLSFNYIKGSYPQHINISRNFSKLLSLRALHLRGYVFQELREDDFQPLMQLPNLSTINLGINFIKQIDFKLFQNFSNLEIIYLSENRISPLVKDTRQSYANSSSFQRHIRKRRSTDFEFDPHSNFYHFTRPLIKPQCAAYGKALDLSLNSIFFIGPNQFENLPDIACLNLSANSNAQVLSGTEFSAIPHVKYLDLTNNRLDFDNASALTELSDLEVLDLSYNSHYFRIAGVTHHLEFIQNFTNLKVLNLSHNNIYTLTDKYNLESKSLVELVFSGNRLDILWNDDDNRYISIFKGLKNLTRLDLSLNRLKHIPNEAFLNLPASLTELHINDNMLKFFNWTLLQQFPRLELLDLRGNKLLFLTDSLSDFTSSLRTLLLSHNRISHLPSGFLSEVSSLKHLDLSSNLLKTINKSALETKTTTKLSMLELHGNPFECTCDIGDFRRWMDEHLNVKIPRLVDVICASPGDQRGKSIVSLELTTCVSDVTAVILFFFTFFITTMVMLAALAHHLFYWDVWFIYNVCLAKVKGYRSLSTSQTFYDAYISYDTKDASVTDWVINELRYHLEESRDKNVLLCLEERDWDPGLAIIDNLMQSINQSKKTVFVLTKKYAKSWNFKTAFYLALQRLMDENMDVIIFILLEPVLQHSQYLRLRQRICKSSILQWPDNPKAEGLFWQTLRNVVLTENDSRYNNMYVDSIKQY
Protocol: as §1, §2

murine TLR7 = target: T3, murine TLR7 (Mus musculus, UniProt P58681); assay: as above; format: cell-based; conditions: 2-fold serial dilutions, 12 hours at 37° C.
T3 construct: expressed in transfected cells; host or cells: HEK293
T3 sequence (P58681 27-1050): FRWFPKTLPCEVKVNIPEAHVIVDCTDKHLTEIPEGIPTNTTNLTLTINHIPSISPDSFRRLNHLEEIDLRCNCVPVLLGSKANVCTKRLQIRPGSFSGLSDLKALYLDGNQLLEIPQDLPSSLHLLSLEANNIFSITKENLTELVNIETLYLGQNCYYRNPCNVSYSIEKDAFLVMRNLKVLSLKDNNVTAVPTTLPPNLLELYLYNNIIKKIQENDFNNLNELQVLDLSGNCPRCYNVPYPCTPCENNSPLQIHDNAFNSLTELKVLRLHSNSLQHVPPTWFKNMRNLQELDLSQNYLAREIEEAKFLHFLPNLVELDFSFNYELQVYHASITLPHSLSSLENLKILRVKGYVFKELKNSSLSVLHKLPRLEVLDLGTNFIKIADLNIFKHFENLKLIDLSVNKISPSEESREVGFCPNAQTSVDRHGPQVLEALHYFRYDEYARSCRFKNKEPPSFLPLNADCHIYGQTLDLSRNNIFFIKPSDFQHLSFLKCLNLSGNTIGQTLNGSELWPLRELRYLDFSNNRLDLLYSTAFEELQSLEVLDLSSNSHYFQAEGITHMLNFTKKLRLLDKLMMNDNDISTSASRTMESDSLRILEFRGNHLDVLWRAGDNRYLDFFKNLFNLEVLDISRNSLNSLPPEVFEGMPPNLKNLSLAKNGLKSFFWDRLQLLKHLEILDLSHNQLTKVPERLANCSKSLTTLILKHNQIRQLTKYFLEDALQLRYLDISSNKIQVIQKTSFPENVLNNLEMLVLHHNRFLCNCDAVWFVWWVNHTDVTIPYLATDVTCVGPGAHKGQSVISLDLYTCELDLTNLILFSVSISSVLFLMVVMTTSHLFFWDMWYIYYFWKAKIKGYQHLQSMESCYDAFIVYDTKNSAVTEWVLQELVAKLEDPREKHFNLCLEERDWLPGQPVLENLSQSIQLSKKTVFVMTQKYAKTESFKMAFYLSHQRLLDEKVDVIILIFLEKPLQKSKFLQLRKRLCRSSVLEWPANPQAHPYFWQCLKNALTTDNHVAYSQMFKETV
Protocol: as §1, §2

[2] = tested on: murine monocyte derived APCs; assay: Cytokine secretion in murine monocyte derived APCs (GM-CSF-pretreated monocytes); format: cell-based; conditions: 18 hours
Protocol: Specifically, cytokine production is shown in FIG. 21 for GM-CSF-pretreated monocytes that were stimulated for 18 hours with the immunoconjugates or equivalent amounts of the unconjugated components.

[3] = tested on: recombinant human CD16a protein; assay: ELISA binding to CD16a; conditions: titration
Protocol: Maxysorp ELISA plates were coated overnight with 1.5 ug/ml recombinant human CD16a protein (R&D Systems 4325-FC-050). Plates were blocked with PBS containing 1% BSA, and incubated with a titration of antibodies or antibody immunoconjugates. Bound antibodies were detected with Peroxidase conjugated AffiniPure F(ab′)2 Fragment Goat Anti-Human IgG (Jackson 109-036-003). TMB (Fisher PI34028) was added to the wells and absorbance at 450 nm was measured after stopping the reaction with TMB stop solution (Fisher NC1291012).

[4] = target: T4, recombinant human CD64 protein (Homo sapiens, UniProt P12314); assay: ELISA binding to CD64; conditions: titration
T4 construct: purchased R&D Systems
T4 sequence (P12314 16-374): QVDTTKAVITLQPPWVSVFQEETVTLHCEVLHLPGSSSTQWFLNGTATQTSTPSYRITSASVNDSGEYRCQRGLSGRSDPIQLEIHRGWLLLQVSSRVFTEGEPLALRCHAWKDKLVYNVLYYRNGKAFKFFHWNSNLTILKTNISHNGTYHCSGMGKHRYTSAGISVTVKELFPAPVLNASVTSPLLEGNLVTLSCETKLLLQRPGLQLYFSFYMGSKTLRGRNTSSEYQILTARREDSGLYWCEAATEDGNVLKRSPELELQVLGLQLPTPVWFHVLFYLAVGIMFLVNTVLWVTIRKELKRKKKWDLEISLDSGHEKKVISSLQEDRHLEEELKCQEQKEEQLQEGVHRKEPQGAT
Protocol: Maxysorp ELISA plates were coated overnight with 1.5 ug/ml recombinant human CD64 protein (R&D Systems). Plates were blocked with PBS containing 1% BSA, and incubated with a titration of Rituximab or Rituximab immunoconjugates (Rituximab BB-01). Bound antibodies were detected with Peroxidase conjugated AffiniPure F(ab′)2 Fragment Goat Anti-Human IgG (Jackson) using TMB color development and absorbance at 450 nm was measured after stopping the reaction.

human TLR7 activation (OD 650 nm) (human TLR7): activated both human TLR7 and TLR8
human TLR8 activation (OD 650 nm) (human TLR8): activated both human TLR7 and TLR8
murine TLR7 activation (OD 650 nm) (murine TLR7): activated murine TLR7
Compound: CCCCc1nc2c(N)nc3ccccc3c2n1CCCCN [Compound 1]
myeloid cell activation (median fluorescence intensity of activation markers) [1]: performed similarly to R848
cytokine response (TNFα, IL-6, IL-12p70) [2]: failed to produce any cytokine response

binding to CD16a (fraction of maximal OD signal) [3]: diminished binding
Compound: aglycosyl Rituximab: aglycosyl Rituximab (Invivogen hcd20-mab12)

binding to CD64 [4]: impaired binding to CD64
Compound: deglycosylated Rituximab: Rituximab deglycosylated with PNGase F

— patent US11547761B1, “Antibody adjuvant conjugates” (The Board of Trustees of the Leland Stanford Junior …, priority 2016, dated 2023)
